Columns and labels:
Trypanosoma brucei = experiment: Antikinetoplastid activity against Trypanosoma brucei gambiense assessed as parasite growth inhibition; assay type: functional, organism-based
Leishmania donovani = experiment: Antikinetoplastid activity against Leishmania donovani LV9 […] amastigotes in mouse RAW264.7 cells assessed as viability measured 24 hrs by SYBR green assay; assay type: functional, organism-based; conditions: LV9, RAW264.7, 24 h
RAW264.7 = experiment: Cytotoxicity against mouse RAW264.7 cells assessed as reduction in cell viability up to 100 uM; assay type: cell-based
[1] = Selectivity index, ratio of cytotoxicity against mouse RAW264.7 cells to IC50 for Trypanosoma brucei gambiense; assay type: toxicity, cell-based; conditions: read-out: Selectivity Index

Q: Which IC50 (Trypanosoma brucei) does the source give for COCC(=O)NCCCCNC(=O)OC(C)(C)C here?
A: The IC50 was greater than 100 µM.

Q: What about the IC50 (Leishmania donovani) of the same molecule?
A: Its IC50 is greater than 100 µM.

Q: What about the Activity (RAW264.7) of the same molecule?
A: Its Activity is “Non-toxic”.

Q: For COCC(=O)NCCCCNCCCN.Cl, which IC50 (Trypanosoma brucei) is on record?
A: Its IC50 is 15.6 µM.

Q: What about the IC50 (Leishmania donovani) of the same molecule?
A: The IC50 was 50 µM.

Q: And the Activity (RAW264.7)?
A: The Activity was “Non-toxic”.

Q: With COCC(=O)NCCCN(CCCCNC(=O)OC(C)(C)C)C(=O)OC(C)(C)C as the molecule, how does the IC50 (Trypanosoma brucei) read?
A: The IC50 was greater than 100 µM.

Q: And the IC50 (Leishmania donovani)?
A: Its IC50 is greater than 100 µM.

Q: And the Activity (RAW264.7)?
A: The Activity was “Non-toxic”.

Q: Which IC50 (Trypanosoma brucei) does the source give for N=C(N)c1ccc(OCCCCCOc2ccc(C(=N)N)cc2)cc1 [PENTAMIDINE] here?
A: The IC50 was 0.011 µM.

Q: And the IC50 (Leishmania donovani)?
A: The IC50 was 4.21 µM.

Q: Which IC50 (Trypanosoma brucei) does the source give for CC(=O)NCCC(=O)NCCSCC(=O)NCCCNCCCCNCCCN.Cl here?
A: Its IC50 is 2.98 µM.

Q: And the IC50 (Leishmania donovani)?
A: Its IC50 is greater than 100 µM.

Q: What about the Activity (RAW264.7) of the same molecule?
A: Its Activity is “Non-toxic”.

Q: Which IC50 (Trypanosoma brucei) does the source give for COCC(=O)NCCCCN(CCCNC(=O)OC(C)(C)C)C(=O)OC(C)(C)C here?
A: The IC50 was greater than 100 µM.

Q: What about the IC50 (Leishmania donovani) of the same molecule?
A: Its IC50 is greater than 100 µM.

Q: What about the Activity (RAW264.7) of the same molecule?
A: Its Activity is “Non-toxic”.

Q: For COCC(=O)NCCCNCCCCN.Cl, which IC50 (Trypanosoma brucei) is on record?
A: The IC50 was greater than 100 µM.

Q: What about the IC50 (Leishmania donovani) of the same molecule?
A: The IC50 was 5.47 µM.

Q: And the Activity (RAW264.7)?
A: Its Activity is “Non-toxic”.

Q: For CC(C)(C)OC(=O)NCCCCN(CCC#N)C(=O)OC(C)(C)C, which IC50 (Trypanosoma brucei) is on record?
A: Its IC50 is greater than 100 µM.

Q: And the IC50 (Leishmania donovani)?
A: Its IC50 is greater than 100 µM.

Q: What about the Activity (RAW264.7) of the same molecule?
A: The Activity was “Non-toxic”.

Q: Which IC50 (Trypanosoma brucei) does the source give for CC(C)(C)OC(=O)NCCCCNCCCNC(=O)OC(C)(C)C here?
A: The IC50 was greater than 100 µM.

Q: And the IC50 (Leishmania donovani)?
A: Its IC50 is greater than 100 µM.

Q: And the Activity (RAW264.7)?
A: The Activity was “Non-toxic”.

Q: Which IC50 (Trypanosoma brucei) does the source give for CC(=O)NCCSCC(=O)NCCCNCCCCNCCCN.Cl here?
A: Its IC50 is 1.92 µM.

Q: What about the IC50 (Leishmania donovani) of the same molecule?
A: The IC50 was greater than 100 µM.

Q: What about the Activity (RAW264.7) of the same molecule?
A: Its Activity is “Non-toxic”.

Q: What about the selectivity ratio [1] of the same molecule?
A: The selectivity ratio was greater than 52.

Q: With COCC(=O)N(CCCN)CCCCN.Cl as the molecule, how does the IC50 (Trypanosoma brucei) read?
A: Its IC50 is greater than 100 µM.

Q: What about the IC50 (Leishmania donovani) of the same molecule?
A: The IC50 was greater than 100 µM.

Q: What about the Activity (RAW264.7) of the same molecule?
A: Its Activity is “Non-toxic”.

Q: With CC(=O)NCCSCC(=O)NCCCNCCCCN.Cl as the molecule, how does the IC50 (Trypanosoma brucei) read?
A: Its IC50 is 14.8 µM.

Q: And the IC50 (Leishmania donovani)?
A: The IC50 was 70.8 µM.

Q: What about the Activity (RAW264.7) of the same molecule?
A: The Activity was “Non-toxic”.

Q: Which results are given for CC(C)(C)OC(=O)NCCCCN(CCCN)C(=O)OC(C)(C)C?
A: IC50 (Trypanosoma brucei): 11.6 µM; IC50 (Leishmania donovani): > 100 µM; Activity (RAW264.7): Non-toxic

Q: For CCCCCCCCCCCCCCCCOP(=O)([O-])OCC[N+](C)(C)C [MILTEFOSINE], which IC50 (Leishmania donovani) is on record?
A: The IC50 was 10.2 µM.

Q: For CC(=O)NCCC(=O)NCCSCC(=O)NCCCNCCCCN.Cl, which IC50 (Trypanosoma brucei) is on record?
A: The IC50 was 11.5 µM.

Q: And the IC50 (Leishmania donovani)?
A: The IC50 was greater than 100 µM.

Q: What about the Activity (RAW264.7) of the same molecule?
A: The Activity was “Non-toxic”.

Q: For COCC(=O)N(CCCCNC(=O)OC(C)(C)C)CCCNC(=O)OC(C)(C)C, which IC50 (Trypanosoma brucei) is on record?
A: Its IC50 is greater than 100 µM.

Q: What about the IC50 (Leishmania donovani) of the same molecule?
A: The IC50 was greater than 100 µM.

Q: And the Activity (RAW264.7)?
A: The Activity was “Non-toxic”.

Q: For CC(C)(C)OC(=O)NCCCCN, which IC50 (Trypanosoma brucei) is on record?
A: The IC50 was greater than 100 µM.

Q: What about the IC50 (Leishmania donovani) of the same molecule?
A: Its IC50 is greater than 100 µM.

Q: What about the Activity (RAW264.7) of the same molecule?
A: The Activity was “Non-toxic”.

Q: What does the source list for COCC(=O)NCCCCN.Cl?
A: IC50 (Trypanosoma brucei): > 100 µM; IC50 (Leishmania donovani): > 100 µM; Activity (RAW264.7): Non-toxic

Q: Which IC50 (Trypanosoma brucei) does the source give for CC(=O)NCCSCC(=O)NCCCCNCCCN.Cl here?
A: Its IC50 is 5.75 µM.

Q: And the IC50 (Leishmania donovani)?
A: Its IC50 is greater than 100 µM.

Q: And the Activity (RAW264.7)?
A: Its Activity is “Non-toxic”.

— ChEMBL document CHEMBL3352702, “Design, synthesis and in vitro antikinetoplastid evaluation of N-acylated putrescine, spermidine and spermine derivatives” (Bioorg Med Chem Lett, 2015)
